Measured values published in patent US20230399319A1, “Acylsulfamide Compound and Pharmaceutical Use Therefor” (Japan Tobacco Inc., priority 2019, published 2023).
Read-outs that look alike come from different tables or passages of the source.

Target: NLRP3 inflammasome (Homo sapiens (Human), UniProt Q96P20)
Assay: Evaluation of NLRP3 inflammasome inhibitory activity (inhibition of IL-1β production in THP1-Null cells, LPS/Nigericin)
[1] = IL-1β production in THP1-Null cells, PMA/LPS primed, Nigericin 7.5 μmol/L
[2] = inhibition of IL-1β production in THP1-Null cells

Sequence of NLRP3 inflammasome (Q96P20 whole entry): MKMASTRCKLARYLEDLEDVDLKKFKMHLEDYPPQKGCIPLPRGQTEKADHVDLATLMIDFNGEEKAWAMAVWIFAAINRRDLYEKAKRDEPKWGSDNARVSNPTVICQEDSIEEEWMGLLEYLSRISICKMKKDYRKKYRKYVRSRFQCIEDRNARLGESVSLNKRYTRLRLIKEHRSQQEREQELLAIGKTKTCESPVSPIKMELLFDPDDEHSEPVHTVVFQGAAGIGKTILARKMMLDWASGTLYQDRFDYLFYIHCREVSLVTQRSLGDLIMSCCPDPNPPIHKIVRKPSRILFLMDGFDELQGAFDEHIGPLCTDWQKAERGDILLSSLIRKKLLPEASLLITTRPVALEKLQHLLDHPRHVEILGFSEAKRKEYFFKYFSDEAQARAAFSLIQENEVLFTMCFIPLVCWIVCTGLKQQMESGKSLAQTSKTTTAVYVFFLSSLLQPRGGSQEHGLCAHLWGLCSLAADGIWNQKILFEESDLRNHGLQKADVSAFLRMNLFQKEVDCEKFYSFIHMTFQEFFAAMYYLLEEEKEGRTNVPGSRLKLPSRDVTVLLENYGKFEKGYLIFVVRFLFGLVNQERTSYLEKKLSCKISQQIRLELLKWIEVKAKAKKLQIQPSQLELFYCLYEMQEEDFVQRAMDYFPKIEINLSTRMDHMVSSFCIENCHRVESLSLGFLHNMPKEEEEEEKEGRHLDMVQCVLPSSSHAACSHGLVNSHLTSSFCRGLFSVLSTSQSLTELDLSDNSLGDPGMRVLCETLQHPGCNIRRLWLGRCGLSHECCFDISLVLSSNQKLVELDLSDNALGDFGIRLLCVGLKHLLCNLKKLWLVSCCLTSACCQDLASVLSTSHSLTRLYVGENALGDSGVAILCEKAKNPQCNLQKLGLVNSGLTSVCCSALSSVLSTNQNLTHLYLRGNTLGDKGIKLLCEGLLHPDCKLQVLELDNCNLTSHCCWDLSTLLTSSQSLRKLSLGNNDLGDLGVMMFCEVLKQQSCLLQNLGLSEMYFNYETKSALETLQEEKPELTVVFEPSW

SMILES | IC50 [2] | also measured
CS(=O)(=O)C1CCN(S(=O)(=O)NC(=O)c2coc(Nc3c4c(c(Cl)c5c3CCC5)CCC4)n2)C1 (racemic) [Example 47] | – | IC50: 420 nM
CC(=O)N(C)C1CCCN(S(=O)(=O)NC(=O)c2coc(Nc3cc(C(F)(F)F)ccc3C)n2)CC1 (racemic) [Example 2-232] | – | IC50: 30 nM
O=C(NS(=O)(=O)N1CCS(=O)(=O)CC1)c1coc(Nc2c3c(c(Cl)c4c2CCC4)CCC3)n1 [Example 42] | – | IC50 [1]: 970 nM
Cc1ccc(C(F)(F)F)cc1Nc1nc(C(=O)NS(=O)(=O)N2CCOCCC2C)co1 (racemic) [Example 2-058] | – | IC50: 54 nM
Cc1ccc(C(F)(F)F)cc1Nc1nc(C(=O)NS(=O)(=O)N2CCCC(C)(C(=O)N(C)C)CC2)co1 (racemic) [Example 2-259] | – | IC50: 87 nM
COC1CCCN(S(=O)(=O)NC(=O)c2coc(Nc3cc(C(F)(F)F)ccc3C)n2)CC1 (racemic) [Example 2-148] | – | IC50: 40 nM
CC(C)c1ccc(C(F)F)cc1Nc1nc(C(=O)NS(=O)(=O)N2CCCN(S(=O)(=O)C3CCOC3)CC2)co1 (racemic) [Example 2-226] | – | IC50: 97 nM
CCOCC1CCN(S(=O)(=O)NC(=O)c2coc(Nc3cc(C(F)(F)F)ccc3C)n2)CCO1 (centres unmarked) [Example 2-301] | 11 nM | –
CC(C)n1cc(Nc2nc(C(=O)NS(=O)(=O)N3CCCOCC3)co2)c(C(C)(C)C)n1 [Example 2-194] | 1500 nM | –
O=C(NS(=O)(=O)N1CCCCC1)c1cnc(Nc2c3c(cc4c2CCC4)CCC3)o1 [Example 3] | – | IC50 [1]: 91 nM
CN(C)C(=O)C1CCN(S(=O)(=O)NC(=O)c2coc(Nc3c4c(c(F)c5c3CCC5)CCC4)n2)CC1 [Example 63] | – | IC50 [1]: 900 nM
Cc1ccc(C(F)(F)F)cc1Nc1nc(C(=O)NS(=O)(=O)N2CCCNCC2)co1 [Example 2-029] | 180 nM | –
O=C(NS(=O)(=O)N1CCOCC1)c1coc(Nc2c3c(c(F)c4c2CCC4)CCC3)n1 [Example 53] | – | IC50 [1]: < 30 nM
Cc1ccc(C(F)(F)F)cc1Nc1nc(C(=O)NS(=O)(=O)N2CCCOCC2C)co1 (racemic) [Example 2-231] | – | IC50: 89 nM
CCCS(=O)(=O)N1CCCN(S(=O)(=O)NC(=O)c2coc(Nc3cc(C(F)F)ccc3C)n2)CC1 [Example 2-270] | 9.8 nM | –
Cc1ccc(C(F)F)cc1Nc1nc(C(=O)NS(=O)(=O)N2CCCOCC2)co1 [Example 2-043] | 49 nM | –
CN(C)S(=O)(=O)NC(=O)c1coc(Nc2c3c(c(F)c4c2CCC4)CCC3)n1 [Example 27] | – | IC50 [1]: 58 nM

SMILES | IC50 [2] | also measured
O=C1CCN(S(=O)(=O)NC(=O)c2coc(Nc3c4c(c(Cl)c5c3CCC5)CCC4)n2)C1 [Example 65] | – | IC50 [1]: 63 nM
COC(C)c1ccc(C)c(Nc2nc(C(=O)NS(=O)(=O)N(C)C)co2)c1 (racemic) [Example 2-061] | – | IC50: 570 nM
Cc1ccc2c(c1Nc1nc(C(=O)NS(=O)(=O)N3CCCC3)co1)CCC2 [Example 31] | – | IC50 [1]: 310 nM
Cc1ccc(C(F)(F)F)cc1Nc1nc(C(=O)NS(=O)(=O)N2CCOC(C)CC2)co1 (racemic) [Example 2-262] | – | IC50: 18 nM
CCC1CN(S(=O)(=O)NC(=O)c2coc(Nc3cc(C(F)(F)F)ccc3C)n2)CCO1 (racemic) [Example 2-006] | – | IC50: 31 nM
O=C(NS(=O)(=O)N1CC2CCC(C1)O2)c1coc(Nc2c3c(c(Cl)c4c2CCC4)CCC3)n1 [Example 51] | – | IC50 [1]: < 30 nM
COC1COCCN(S(=O)(=O)NC(=O)c2coc(Nc3cc(C(F)(F)F)ccc3C(C)C)n2)C1 (racemic) [Example 2-121] | – | IC50: 35 nM
CN1CCN(S(=O)(=O)NC(=O)c2coc(Nc3c4c(c(F)c5c3CCC5)CCC4)n2)CC1=O [Example 64] | – | IC50 [1]: 5700 nM
CC(C)c1cn(C(C)C)nc1Nc1nc(C(=O)NS(=O)(=O)N(C)C)co1 [Example 2-117] | 110 nM | –
CC(=O)NC1CCN(S(=O)(=O)NC(=O)c2coc(Nc3c4c(c(F)c5c3CCC5)CCC4)n2)CC1 [Example 62] | – | IC50 [1]: 270 nM
C[C@H]1CCCN1S(=O)(=O)NC(=O)c1coc(Nc2c3c(c(Cl)c4c2CCC4)CCC3)n1 [Example 44] | – | IC50 [1]: 230 nM
CCCS(=O)(=O)N1CCCN(S(=O)(=O)NC(=O)c2coc(Nc3cc(C)c(C)cc3C)n2)CC1 [Example 2-289] | 46 nM | –
Cc1ccc(C(F)(F)F)cc1Nc1nc(C(=O)NS(=O)(=O)N2CCOCC2C)co1 (racemic) [Example 2-005] | – | IC50: 30 nM
CS(=O)(=O)C1CCN(S(=O)(=O)NC(=O)c2coc(Nc3c4c(c(F)c5c3CCC5)CCC4)n2)CC1 [Example 58] | – | IC50 [1]: 39 nM
Cc1cc(C#N)c(C(F)(F)F)cc1Nc1nc(C(=O)NS(=O)(=O)N2CCCOCC2)co1 [Example 2-142] | 6300 nM | –
CCCS(=O)(=O)N1CCCN(S(=O)(=O)NC(=O)c2coc(Nc3cc(C)cc(C)c3C)n2)CC1 [Example 2-288] | 120 nM | –

Now from value to compound, other results behind:

IC50 [2] | SMILES | also measured
78 nM | CCOCC1CCN(S(=O)(=O)NC(=O)c2coc(Nc3nn(C(C)C)cc3C)n2)CCO1 (centres unmarked) [Example 2-333] | –
86 nM | CC(C)c1ccc(C(F)F)cc1Nc1nc(C(=O)NS(=O)(=O)N(C)C)co1 [Example 2-105] | –
940 nM | CCCS(=O)(=O)N1CCCN(S(=O)(=O)NC(=O)c2coc(Nc3cccc4ocnc34)n2)CC1 [Example 2-271] | –
31 nM | CCCCS(=O)(=O)N1CCCN(S(=O)(=O)NC(=O)c2coc(Nc3nn(C(C)C)cc3C)n2)CC1 [Example 2-181] | –
49 nM | CCOCC1CCN(S(=O)(=O)NC(=O)c2coc(Nc3cc(C)ccc3C)n2)CCO1 (centres unmarked) [Example 2-305] | –
20 nM | Cc1ccc(C(F)(F)F)cc1Nc1nc(C(=O)NS(=O)(=O)N2CCCN(S(=O)(=O)CC(C)C)CC2)co1 [Example 2-128] | –
170 nM | CCCS(=O)(=O)N1CCCN(S(=O)(=O)NC(=O)c2coc(Nc3cn(C(C)C)nc3C(C)C)n2)CC1 [Example 2-160] | –
15 nM | Cc1ccc(C(F)(F)F)cc1Nc1nc(C(=O)NS(=O)(=O)N2CCCN(c3ncccn3)CC2)co1 [Example 2-183] | –
150 nM | Cc1ccc(C2(C#N)CC2)cc1Nc1nc(C(=O)NS(=O)(=O)N2CCCOCC2)co1 [Example 2-107] | –
190 nM | COCC1CCN(S(=O)(=O)NC(=O)c2coc(Nc3cc(C)ccc3C)n2)CCO1 (centres unmarked) [Example 2-299] | –
< 30 nM | COCCN(C(C)C)S(=O)(=O)NC(=O)c1coc(Nc2cc(C(F)(F)F)ccc2C)n1 [Example 2-048] | –
1700 nM | CC(C)n1cc(Nc2nc(C(=O)NS(=O)(=O)N3CCCOCC3)co2)c(C(F)(F)F)n1 [Example 2-169] | –
18 nM | CCCCS(=O)(=O)N1CCCN(S(=O)(=O)NC(=O)c2coc(Nc3cc(C)ccc3C)n2)CC1 [Example 2-203] | –
50 nM | CCC(=O)N1CCCN(S(=O)(=O)NC(=O)c2coc(Nc3cc(C(F)(F)F)ccc3C)n2)CC1 [Example 2-102] | –
32 nM | Cc1ccc(C(F)(F)F)cc1Nc1nc(C(=O)NS(=O)(=O)N2CCOCC2)cs1 [Example 2-065] | –
< 30 nM | Cc1ccc(C(C)C)cc1Nc1nc(C(=O)NS(=O)(=O)N2CCCOCC2)cs1 [Example 2-056] | –
73 nM | CCCS(=O)(=O)N1CCCN(S(=O)(=O)NC(=O)c2coc(Nc3cc(Cl)ccc3C)n2)CC1 [Example 2-291] | –
20 nM | CCN(C)S(=O)(=O)N1CCCN(S(=O)(=O)NC(=O)c2coc(Nc3cc(C(F)(F)F)ccc3C)n2)CC1 [Example 2-129] | –
1500 nM | Cc1c(Nc2nc(C(=O)NS(=O)(=O)N3CCCOCC3)co2)c(C(C)C)nn1C(C)C [Example 2-227] | –
220 nM | Cc1ccc(C2CC2)cc1Nc1nc(C(=O)NS(=O)(=O)N(C)C)co1 [Example 2-035] | –
